Literature values, collected in patent US20160194352A1, “AMORPHOUS FORMS OF DACLATASVIR DIHYDROCHLORIDE” (Dr.Reddy's Laboratories Ltd., priority 2015, published 2016).

Test system: HCV
Conditions: HCV infected patients, combination therapy

In the case of alpha-interferon and ribavirin, the “sustained efficacy, share of patients” value is listed as 40% of patients.
